The values that follow come from US9839623B2, “Tricyclic compounds and methods of making and using same” (Zafgen, Inc., priority 2010, dated 2017).

For this experiment, the target named is T1, recombinant human MetAP2 (Homo sapiens, UniProt P50579).
T1 construct: made in house; host or cells: Sf9 insect cells
T1 sequence (P50579 whole entry): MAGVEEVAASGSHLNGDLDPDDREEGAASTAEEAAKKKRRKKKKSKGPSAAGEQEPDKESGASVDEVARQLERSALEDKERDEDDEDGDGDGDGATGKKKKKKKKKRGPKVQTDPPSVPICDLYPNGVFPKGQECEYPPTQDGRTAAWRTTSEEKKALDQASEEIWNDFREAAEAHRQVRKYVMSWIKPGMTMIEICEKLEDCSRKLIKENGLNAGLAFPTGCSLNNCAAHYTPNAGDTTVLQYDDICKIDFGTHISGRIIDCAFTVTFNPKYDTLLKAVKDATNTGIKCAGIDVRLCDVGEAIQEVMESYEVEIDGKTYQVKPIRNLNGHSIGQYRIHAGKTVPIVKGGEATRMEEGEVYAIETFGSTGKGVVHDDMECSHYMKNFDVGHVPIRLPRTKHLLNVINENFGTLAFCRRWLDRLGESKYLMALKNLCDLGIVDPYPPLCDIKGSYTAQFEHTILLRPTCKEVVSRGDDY
Briefly: Inhibition of recombinant human MetAP2 activity (MAS substrate, amino acid oxidase/Amplex red fluorescence). It counts as biochemical. To be noted: manganese enzyme, 30 minutes at 25° C., pH 7.5, 0.75 mM MAS substrate, 1% DMSO. The method, then: Compounds are tested for their capacity to inhibit recombinant human MetAP2 activity using the following assay.
Human recombinant MetAP2 expressed in Sf9 cells followed by affinity purification and EDTA treatment to remove endogenous active site cation was dialysed against MnCl2 to produce the manganese enzyme used in the assay. The assay was carried out for 30 minutes at 25° C. in 50 mM HEPES buffer containing 100 mM NaCl, pH 7.5 the presence of 0.75 mM Methionine-Alanine-Serine (MAS) substrate and 50 μg/mL amino acid oxidase using a dilution of purified MetAP2 giving >3-fold signal:noise. Cleavage of the substrate by MetAP2 and oxidation of free methionine by amino acid oxidase was detected and quantified using fluorescence generated by Amplex red (10-acetyl-3,7-dihydroxyphenoxazine) in combination with horseradish peroxidase which detects H2O2 released during the oxidation step. The fluorescent signal was detected using a multiwell fluorimeter. Compounds were diluted in DMSO prior to addition to assay buffer, the final DMSO concentration in the assay being 1%.
The IC50 is defined as the concentration at which a given compound achieves 50% inhibition of control. IC50 values are calculated using the XLfit software package (version 2.0.5).
With `CCN(CC)C/C=C\c1cc(F)ccc1S(=O)(=O)Cc1ccc2c(c1C(=O)O)OC(C)c1occc1-2` (racemic) [Example 15], the half-inhibitory concentration (IC50) (commonly the point on the concentration scale where inhibition reaches its midpoint) is < 100 nM. Then `CCN(CC)C/C=C\c1cc(F)ccc1S(=O)(=O)Cc1ccc2c(c1C(=O)O)OC(C)c1occc1-2` (single isomer, unassigned) [Example 18A, 7-[2-((Z)-3-diethylaminoprop-1-enyl)-4-fluorobenzenesulfonylmethyl]-4-methyl-4H-furo[2,3-c]chromene-6-carboxylic Acid], with < 100 nM; and `CCN(CC)C/C=C\c1cc(F)ccc1S(=O)(=O)Cc1ccc2c(c1C(=O)O)OC(C)c1occc1-2` (single isomer, unassigned) [Example 18B, 7-[2-((Z)-3-diethylaminoprop-1-enyl)-4-fluorobenzenesulfonylmethyl]-4-methyl-4H-furo[2,3-c]chromene-6-carboxylic Acid], with 100 to 1000 nM.

With `C[C@H]1Oc2c(ccc(CS(=O)(=O)c3ccccc3)c2C(=O)O)-c2ccoc21` (stereo in doubt) [Example 6, 7-(Benzenesulfonylmethyl)-4-methyl-4H-furo[2,3-c]chromene-6-carboxylic Acid], the IC50 was < 100 nM.

As for `CCN(CC)C/C=C\c1cc(F)ccc1S(=O)(=O)Nc1ccc2c(c1C(=O)O)OCc1occc1-2` [Example 1, 7-[2-((Z)-3-Diethylaminoprop-1-enyl)-4-fluorobenzenesulfonylamino]-4H-furo[2,3-c]chromene-6-carboxylic Acid], the half-inhibitory concentration (IC50) is < 100 nM. `O=C(O)c1c(CS(=O)(=O)c2ccccc2)ccc2c1OCc1occc1-2` [Example 2, 7-(Benzenesulfonylmethyl)-4H-furo[2,3-c]chromene-6-carboxylic Acid]: the half-maximal inhibitory concentration (IC50) is < 100 nM. Then `O=C(O)c1c(CS(=O)(=O)c2ccccc2)ccc2c1OCCc1occc1-2` [Example 3, 8-(Benzenesulfonylmethyl)-4,5-dihydro-3,6-dioxabenzo[e]azulene-7-carboxylic Acid], with 100 to 1000 nM.

`O=C(O)c1c(CS(=O)(=O)c2ccccc2)ccc2c1ncc1occc12` [Example 4, 7-(Benzenesulfonylmethyl)-furo[2,3-c]quinoline-6-carboxylic Acid]: the IC50 was in the range of 100 to 1000 nM.

Consider `O=C(O)c1c(CS(=O)(=O)c2ccccc2)ccc2c1oc(=O)c1occc12` [Example 5, 7-(Benzenesulfonylmethyl)-4-oxo-4H-furo[2,3-c]chromene-6-carboxylic Acid], for which the 50% inhibitory concentration (IC50) lay within 100 to 1000 nM. For `CCN(CC)C/C=C\c1cc(F)ccc1S(=O)(=O)Nc1ccc2c(c1C(=O)O)OCCc1occc1-2` [Example 7, 8-[2-((Z)-3-Diethylaminoprop-1-enyl)-4-fluorobenzenesulfonylamino]-4,5-dihydro-3,6-dioxabenzo[e]azulene-7-carboxylic Acid], the IC50 was < 100 nM. Then `CCN(CC)C/C=C\c1cc(F)ccc1S(=O)(=O)Nc1ccc2c(ncc3occc32)c1C(=O)O` [Example 8, 7-[2-((Z)-3-Diethylaminoprop-1-enyl)-4-fluorobenzenesulfonylamino]-furo[2,3-c]quinoline-6-carboxylic Acid], with < 100 nM; and `CCN(CC)CCCc1cc(F)ccc1S(=O)(=O)Nc1ccc2c(c1C(=O)O)OCc1occc1-2` [Example 9, 7-[2-(3-Diethylaminopropyl)-4-fluorobenzenesulfonylamino]-4H-furo[2,3-c]chromene-6-carboxylic Acid], with < 100 nM; and `CCNC/C=C\c1cc(F)ccc1S(=O)(=O)Nc1ccc2c(c1C(=O)O)OCc1occc1-2` [Example 10, 7-[2-((Z)-3-Ethylaminoprop-1-enyl)-4-fluorobenzenesulfonylamino]-4H-furo[2,3-c]chromene-6-carboxylic Acid], with < 100 nM. Under `CCN(CC)CCCc1cc(F)ccc1S(=O)(=O)Nc1ccc2c(c1C(=O)O)OCCc1occc1-2` [Example 11, 8-[2-(3-Diethylaminopropyl)-4-fluorobenzenesulfonylamino]-4,5-dihydro-3,6-dioxabenzo[e]azulene-7-carboxylic Acid] stands < 100 nM; under `O=C(O)c1c(NS(=O)(=O)c2ccc(F)cc2/C=C\CN2CCOCC2)ccc2c1OCc1occc1-2` [Example 12, 7-{4-Fluoro-2-[(Z)-3-(morpholin-4-yl)prop-1-enyl]benzenesulfonylamino}-4H-furo[2,3-c]chromene-6-carboxylic Acid], < 100 nM.

On to `O=C(O)c1c(NS(=O)(=O)c2ccc(F)cc2/C=C\CN2CCCC2)ccc2c1OCc1occc1-2` [Example 13, 7-{4-Fluoro-2-[(Z)-3-(pyrrolidin-1-yl)prop-1-enyl]benzenesulfonylamino}-4H-furo[2,3-c]chromene-6-carboxylic Acid], for which the 50% inhibitory concentration (IC50) is < 100 nM. `CCN(CC)C/C=C\c1cc(F)ccc1S(=O)(=O)Nc1ccc2c(oc(=O)c3occc32)c1C(=O)O` [Example 14]: the concentration for half-maximal inhibition (IC50) was < 100 nM.

Take `CCN(CC)CCCc1cc(F)ccc1S(=O)(=O)Nc1ccc2c(ncc3occc32)c1C(=O)O` [Example 16, 7-[2-(3-Diethylaminopropyl)-4-fluorobenzenesulfonylamino]-furo[2,3-c]quinoline-6-carboxylic Acid]: the 50% inhibitory concentration (IC50) is < 100 nM. Under `CCN(CC)C/C=C\c1cc(F)ccc1S(=O)(=O)Nc1ccc2c(c1C(=O)O)OCc1cnsc1-2` [Example 17, 7-[2-((Z)-3-Diethylaminoprop-1-enyl)-4-fluorobenzenesulfonylamino]-4H-chromeno[3,4-d]isothiazole-6-carboxylic Acid] stands < 100 nM; under `CCN(CC)C/C=C\c1ccccc1S(=O)(=O)Nc1ccc2c(c1C(=O)O)OCc1occc1-2` [Example 19], < 100 nM. Then `O=C(O)c1c(NS(=O)(=O)c2ccc(F)cc2/C=C\CN2CC[C@@H](O)C2)ccc2c1OCc1occc1-2` [Example 20, 7-{4-Fluoro-2-[(Z)-3-((R)-3-hydroxypyrrolidin-1-yl)-prop-1-enyl]-benzenesulfonylamino}-4H-furo[2,3-c]chromene-6-carboxylic Acid], with < 100 nM; and `O=C(O)c1c(NS(=O)(=O)c2ccc(F)cc2/C=C\CN2CC[C@H](O)C2)ccc2c1OCc1occc1-2` [Example 21, 7-{4-Fluoro-2-[(Z)-3-((S)-3-hydroxypyrrolidin-1-yl)-prop-1-enyl]-benzenesulfonylamino}-4H-furo[2,3-c]chromene-6-carboxylic Acid], with < 100 nM; and `CCN(CC)C/C=C\c1cc(F)ccc1S(=O)(=O)Nc1ccc2c([nH]c(=O)c3occc32)c1C(=O)O` [Example 22, 7-[2-((Z)-3-Diethylaminoprop-1-enyl)-4-fluorobenzenesulfonylamino]-4-oxo-4,5-dihydrofuro[2,3-c]quinoline-6-carboxylic Acid], with < 100 nM. Under `O=C(O)c1c(NS(=O)(=O)c2ccc(F)cc2/C=C\CN2CCC2)ccc2c1OCc1occc1-2` [Example 23, 7-{2-[(Z)-3-(Azetidin-1-yl)prop-1-enyl]-4-fluorobenzenesulfonyl-amino}-4H-furo[2,3-c]chromene-6-carboxylic Acid] stands < 100 nM; under `O=C(O)c1c(NS(=O)(=O)c2ccc(F)cc2/C=C\CN2CC(O)C2)ccc2c1OCc1occc1-2` [Example 24, 7-{4-Fluoro-2-[(Z)-3-(3-hydroxyazetidin-1-yl)-prop-1-enyl]-benzenesulfonylamino}-4H-furo[2,3-c]chromene-6-carboxylic Acid], < 100 nM. On to `CCN(CC)C/C=C\c1cc(F)ccc1S(=O)(=O)Nc1ccc2c(c1C(=O)O)OCc1occ(F)c1-2` [Example 25, 7-[2-((Z)-3-Diethylaminoprop-1-enyl)-4-fluorobenzenesulfonylamino]-1-fluoro-4H-furo[2,3-c]chromene-6-carboxylic Acid], for which the IC50 is < 100 nM. Consider `CCN(CC)C/C=C/c1cc(F)ccc1S(=O)(=O)Nc1ccc2c(c1C(=O)O)OCc1occc1-2` [Example 26, 7-[2-((E)-3-Diethylaminoprop-1-enyl)-4-fluorobenzenesulfonylamino]-4H-furo[2,3-c]chromene-6-carboxylic Acid], for which the IC50 is < 100 nM.
